{"source": "paper PMC9306949", "about": "(Clinical Pharmacology in Drug Development, 2022)", "key": {"[1]": {"format": "in vivo, human", "settings": "for M/P (AUC0‐t), metabolite-to-parent ratio / AUC0‐24 / AUC0‐inf / AUC0‐t / C24 / Cmax: mean (%CV); for t1/2 / AUC0‐24 / AUC0‐inf / AUC0‐t / C24 / Cmax / tmax: plasma; for t1/2: arithmetic mean (%CV); for tmax: median (min-max)"}, "[2]": {"settings": "cited from earlier work"}, "[3]": {"test": "Urine excretion of navtemadlin and M1", "format": "in vivo, human"}, "[4]": {"settings": "cited from earlier work", "remark": "listed apart in the source"}, "[5]": {"settings": "Treatment A (reference): new tablet fasted, drug-load analysis"}, "[6]": {"settings": "Treatment A (reference): new tablet fasted, food-effect analysis"}, "[7]": {"settings": "Treatment B (test 1): new tablet fed, food-effect analysis"}, "[8]": {"settings": "Treatment B: 60-mg new tablet, fed (high-fat meal)"}, "[9]": {"settings": "Treatment C (test 2): old tablet fasted, drug-load analysis"}, "[10]": {"settings": "Treatment C: 60-mg old tablet, fasted"}, "[11]": {"settings": "Treatment A: 60-mg new tablet, fasted"}, "[12]": {"settings": "test/reference: B (new tablet fed) vs A (new tablet fasted)"}, "[13]": {"settings": "test/reference: C (old tablet fasted) vs A (new tablet fasted)"}, "[14]": {"settings": "patients with solid tumors or multiple myeloma"}, "[15]": {"settings": "period 1 (old tablet fasted), 0-48 h urine"}}, "note": "Entries after “also recorded” stand apart in the source; their conditions may differ. Read-outs that look alike come from different tables or passages of the source. Marks after values point to notes of the source that are not given here."}
{"smiles": "CC(C)[C@@H](CS(=O)(=O)C(C)C)N1C(=O)[C@@](C)(CC(=O)O[C@@H]2O[C@H](C(=O)O)[C@@H](O)[C@H](O)[C@H]2O)C[C@H](c2cccc(Cl)c2)[C@H]1c1ccc(Cl)cc1", "note": "[M1, navtemadlin acyl glucuronide]", "values": [{"measurement": "tmax, median", "setting": "[1]; Treatment A (reference): new tablet fasted, average of 2, drug-load analysis", "value": "2.5 ^d h"}, {"measurement": "tmax, median", "setting": "[1]; Treatment A (reference): new tablet fasted, average of 2, food-effect analysis", "value": "2.5 ^d h"}, {"measurement": "AUC0‐24, GLSM", "setting": "[1]; [5]", "value": "528, N = 30 ng • h/mL"}, {"measurement": "AUC0‐inf, GLSM", "setting": "[1]; [5]", "value": "701, N = 28 ng • h/mL"}, {"measurement": "AUC0‐t, GLSM", "setting": "[1]; [5]", "value": "646, N = 30 ng • h/mL"}, {"measurement": "Cmax, GLSM", "setting": "[1]; [5]", "value": "98, N = 30 ng/mL"}, {"measurement": "AUC0‐24, GLSM", "setting": "[1]; [6]", "value": "528, N = 30 ng • h/mL"}, {"measurement": "AUC0‐inf, GLSM", "setting": "[1]; [6]", "value": "710, N = 28 ng • h/mL"}, {"measurement": "AUC0‐t, GLSM", "setting": "[1]; [6]", "value": "646, N = 30 ng • h/mL"}, {"measurement": "Cmax, GLSM", "setting": "[1]; [6]", "value": "98, N = 30 ng/mL"}, {"measurement": "exposure in UGT1A1*28 heterozygous poor metabolizers (6/7 TA repeats) vs WT (6/6 TA repeats)", "setting": "[1]; Treatment A, n = 16 vs n = 12", "value": "generally comparable"}, {"measurement": "AUC0‐24, GLSM", "setting": "[1]; [7]", "value": "465, N = 30 ng • h/mL"}, {"measurement": "AUC0‐inf, GLSM", "setting": "[1]; [7]", "value": "610, N = 22 ng • h/mL"}, {"measurement": "AUC0‐t, GLSM", "setting": "[1]; [7]", "value": "555, N = 30 ng • h/mL"}, {"measurement": "Cmax, GLSM", "setting": "[1]; [7]", "value": "117, N = 30 ng/mL"}, {"measurement": "tmax, median", "setting": "[1]; [7]", "value": "3.0 ^d h"}, {"measurement": "M/P (AUC0‐t), metabolite-to-parent ratio", "setting": "[1]; [8]", "value": "0.2 (38.3); 30"}, {"measurement": "AUC0‐24, GLSM", "setting": "[1]; [9]", "value": "506, N = 30 ng • h/mL"}, {"measurement": "AUC0‐inf, GLSM", "setting": "[1]; [9]", "value": "643, N = 26 ng • h/mL"}, {"measurement": "AUC0‐t, GLSM", "setting": "[1]; [9]", "value": "585, N = 30 ng • h/mL"}, {"measurement": "Cmax, GLSM", "setting": "[1]; [9]", "value": "84, N = 30 ng/mL"}, {"measurement": "tmax, median", "setting": "[1]; [9]", "value": "2.0 ^d h"}, {"measurement": "M/P (AUC0‐t), metabolite-to-parent ratio", "setting": "[1]; [10]", "value": "0.2 (34.3); 30"}, {"measurement": "acyl glucuronide to parent drug AUC0‐t ratio", "setting": "[1]; after correction for molecular weight, across study groups", "value": "≈ 0.2"}, {"measurement": "time of second peak after dosing (enterohepatic recirculation)", "setting": "[1]; all 3 treatments", "value": "around 10 hours"}, {"measurement": "PK in H. pylori–positive vs H. pylori–negative subjects", "setting": "[1]; n = 12 positive vs n = 18 negative", "value": "not markedly affected"}, {"measurement": "decrease in extent of exposure (AUC0‐24, AUC0‐t, AUC0‐inf) with a high‐fat meal", "setting": "[1]; new tablet fed vs fasted", "value": "12% to 18%"}, {"measurement": "increase in Cmax with a high‐fat meal", "setting": "[1]; new tablet fed vs fasted", "value": "≈ 18%; also recorded: ≈ 20%"}, {"measurement": "difference in median tmax between fed and fasted conditions, significance", "setting": "[1]; new tablet, Wilcoxon signed-rank, alpha level of 0.1", "value": "not significant"}, {"measurement": "t1/2", "setting": "[1]; [11]", "value": "16.2 (57.8); 46 h"}, {"measurement": "AUC0‐24", "setting": "[1]; [11]", "value": "607 (60.9); 60 ng • h/mL"}, {"measurement": "AUC0‐inf", "setting": "[1]; [11]", "value": "849 (74.1); 46 ng • h/mL"}, {"measurement": "AUC0‐t", "setting": "[1]; [11]", "value": "782 (72.2); 60 ng • h/mL"}, {"measurement": "C24", "setting": "[1]; [11]", "value": "7.82 (97.4); 60 ng/mL"}, {"measurement": "Cmax", "setting": "[1]; [11]", "value": "118 (70.0); 60 ng/mL"}, {"measurement": "tmax", "setting": "[1]; [11]", "value": "2.02 (1.00 – 6.00); 60 h"}, {"measurement": "AUC0‐24", "setting": "[1]; [8]", "value": "532 (56.0); 30 ng • h/mL"}, {"measurement": "AUC0‐inf", "setting": "[1]; [8]", "value": "824 (61.1); 22 ng • h/mL"}, {"measurement": "AUC0‐t", "setting": "[1]; [8]", "value": "666 (65.8); 30 ng • h/mL"}, {"measurement": "C24", "setting": "[1]; [8]", "value": "5.96 (87.8); 30 ng/mL"}, {"measurement": "Cmax", "setting": "[1]; [8]", "value": "133 (52.6); 30 ng/mL"}, {"measurement": "tmax", "setting": "[1]; [8]", "value": "3.00 (0.99 ‐ 4.02); 30 h"}, {"measurement": "t1/2", "setting": "[1]; [10]", "value": "13.7 (68.5); 26 h"}, {"measurement": "AUC0‐24", "setting": "[1]; [10]", "value": "609 (68.6); 30 ng • h/mL"}, {"measurement": "AUC0‐inf", "setting": "[1]; [10]", "value": "794 (71.6); 26 ng • h/mL"}, {"measurement": "AUC0‐t", "setting": "[1]; [10]", "value": "740 (77.5); 30 ng • h/mL"}, {"measurement": "C24", "setting": "[1]; [10]", "value": "7.04 (109.6); 30 ng/mL"}, {"measurement": "Cmax", "setting": "[1]; [10]", "value": "101 (65.3); 30 ng/mL"}, {"measurement": "tmax", "setting": "[1]; [10]", "value": "2.01 (1.00 – 6.00); 30 h"}, {"measurement": "tmax, difference of medians (90%CI)", "setting": "[1]; test-reference: B (new tablet fed) minus A (new tablet fasted)", "value": "0.4 (‐0.002‐0.8) ^e , ^g h"}, {"measurement": "tmax, difference of medians (90%CI)", "setting": "[1]; test-reference: C (old tablet fasted) minus A (new tablet fasted)", "value": "0.1 (–0.3 to 0.6) ^e , ^g h"}, {"measurement": "AUC0‐24, % ratio of least squares means (90%CI)", "setting": "[1]; [12]", "value": "88.2 (82.2‐94.6) %"}, {"measurement": "AUC0‐inf, % ratio of least squares means (90%CI)", "setting": "[1]; [12]", "value": "86.0 (77.5‐95.4) %"}, {"measurement": "AUC0‐t, % ratio of least squares means (90%CI)", "setting": "[1]; [12]", "value": "85.9 (79.9‐92.3) %"}, {"measurement": "Cmax, % ratio of least squares means (90%CI)", "setting": "[1]; [12]", "value": 118.7, "unit": "%"}, {"measurement": "AUC0‐24, % ratio of least squares means (90%CI)", "setting": "[1]; [13]", "value": "95.8 (89.4‐102.7) %"}, {"measurement": "AUC0‐inf, % ratio of least squares means (90%CI)", "setting": "[1]; [13]", "value": "91.8 (85.3 to 98.6) %"}, {"measurement": "AUC0‐t, % ratio of least squares means (90%CI)", "setting": "[1]; [13]", "value": "90.6 (84.2 to 97.6) %"}, {"measurement": "Cmax, % ratio of least squares means (90%CI)", "setting": "[1]; [13]", "value": "85.7 (77.9‐94.2) %"}, {"measurement": "mean accumulation", "setting": "[2]; 7‐day once‐daily dosing period, patients", "value": "< 2", "unit": "fold"}, {"measurement": "mean (SD) terminal half‐life (t1/2)", "setting": "[2]; [14]", "value": "14.0 (6.07) hours"}, {"measurement": "mean metabolite‐to‐parent 24‐hour AUC ratio", "setting": "[2]; [14]", "value": 0.461}, {"measurement": "mean tmax", "setting": "[2]; [14]", "value": "2 to 4", "unit": "h"}, {"measurement": "mean amount excreted in urine", "setting": "[3]; [15]", "value": 17.3, "unit": "µg"}, {"measurement": "mean fraction of dose excreted in urine", "setting": "[3]; [15]", "value": 0.02, "unit": "%"}, {"measurement": "urine excretion", "setting": "[3]; single 60-mg dose, healthy subjects", "value": "negligible"}, {"measurement": "share of excreted biliary radioactivity", "setting": "[4]; rat bile", "value": "accounts for most of the excreted biliary radioactivity"}, {"measurement": "presence in feces", "setting": "[4]; rat feces, hydrolysis in the intestine", "value": "not present in rat feces"}]}
